Laboratory results reported in the NIST ThermoML archive (doi:10.1021/je050494l).
± gives the expanded uncertainty stated by the source.

Experiment: refractive index (Na D-line) (dimensionless)
Details: 298.2 K, 101.33 kPa, Liquid

Row | refractive index (Standard Abbe refractometry) | refractive index | Compound
1 | 1.471 ± 0.0006 |  | CCCCCCCCOS(=O)(=O)[O-].CCn1cc[n+](C)c1 [1-ethyl-3-methylimidazolium octyl sulfate]
2 |  | 1.466 ± 0.0009 | CCCCCCCC[n+]1ccn(C)c1.COCCOCCOS(=O)(=O)[O-] [1-methyl-3-octylimidazolium 2-(2-methoxyethoxy)ethyl sulfate]
3 |  | 1.4972 ± 0.0009 | c1ccccc1 [benzene]
4 |  | 1.385 ± 0.0009 | CCCCCCC [heptane]
5 |  | 1.4318 ± 0.0009 | CCCCCCCCCCCCCCCC [hexadecane]
